Reference: patent publication US12390437B2, “Itaconic acid derivatives and uses thereof intreating an inflammatory disease or a disease associated with an undesirable immune response” (Sitryx Therapeutics Limited, priority 2019, dated 2025)
Read-outs that look alike come from different tables or passages of the source.

How the values were obtained:
[1] = Mouse pharmacokinetic study, intravenous dosing; assay type: in vivo; details: male, C57BL/6, mouse, iv, plasma, 10 mg/kg i.v., read-out: Parent compound concentration following intravenous administration
Procedure: Pharmacokinetic studies were carried out in 6-8-week-old male C57BL/6 mice having free access to food and water. Intravenous dosing was conducted at 10 mg/kg (5 mL/kg; vehicle: 10% DMSO-90% (25% HP-13-CD in water)) via tail vein injection, with sampling at 3 min, 8 min, 15 min, 30 min, 1, 2, 4, 6 and 8 hours, i.e., 9 time points in total (N=3/time point), using semi-serial bleeding for plasma. Oral compound administration, via gavage, was carried out at 100 mg/kg (10 mL/kg; vehicle: 5% DMSO-95% (0.5% HPMC+0.1% Tween 80 in water)), with sampling at 5 min, 15 min, 30 min, 1, 2, 4, 6, 8 and 24 hours, i.e., 9 time points in total (N=3/time point), using semi-serial bleeding for plasma.
For both intravenous and oral routes, the mice were restrained manually at the designated time points, with ca. 110 μL of blood being taken into K2EDTA tubes via the facial vein. Blood samples were put on ice and centrifuged to obtain plasma samples from which the concentration at each time point was measured by LC-MS/MS.

[2] = system: IL-1β cytokine output from THP-1s; assay: THP-1 AlphaLISA IL-1β cytokine assay; assay type: cell-based, human
Procedure: Measuring Inhibitory Effects on IL-1β and IL-6 Cytokine Output from THP-1s
The cytokine inhibition profiles of compounds of formula (IW-1) were determined in a differentiated THP-1 cell assay. All assays were performed in RPMI-1640 growth medium (Gibco), supplemented with 10% fetal bovine serum (FBS; Gibco), 1% penicillin-streptomycin and 1% sodium pyruvate unless specified otherwise. The IL-1β and IL-6 cytokine inhibition assays were each run in a background of differentiated THP-1 cells as described below. All reagents described were from Sigma-Aldrich unless specified otherwise. Compounds were prepared as 10 mM DMSO stocks.
THP-1 cells were expanded as a suspension up to 80% confluence in appropriate growth medium. Cells were harvested, suspended, and treated with an appropriate concentration of phorbol 12-myristate 13-acetate (PMA) over a 72 hr period (37° C./5% CO2).
Following 72 hrs of THP-1 cell incubation, cellular medium was removed and replaced with fresh growth media containing 1% of FBS. Working concentrations of compounds were prepared separately in 10% FBS treated growth medium and pre-incubated with the cells for 30 minutes (37° C./5% CO2). Following the 30 minute compound pre-incubation, THP-1s were treated with an appropriate concentration of LPS and the THP-1s were subsequently incubated for a 24 hr period (37° C./5% CO2). An appropriate final concentration of Nigericin was then dispensed into the THP-1 plates and incubated for 1 hour (37° C./5% CO2) before THP-1 supernatants were harvested and collected in separate polypropylene 96-well holding plates.
Reagents from each of the IL-1β and IL-6 commercial kits (Perkin Elmer) were prepared and run according to the manufacturer's instructions. Subsequently, fluorescence signal detection in a microplate reader was measured (EnVision® Multilabel Reader, Perkin Elmer).
Percentage inhibition was calculated per cytokine by normalising the sample data to the high and low controls used within each plate (+/−LPS respectively). Percentage inhibition was then plotted against compound concentration and the 50% inhibitory concentration (IC50) was determined from the resultant concentration-response curve.

[3] = Homo sapiens, THP-1, PMA-differentiated THP-1 cells, LPS 24 hr then Nigericin 1 hour, read-out: IL-1β (IC50)

C=C(CC(=O)OC12CC3CC(CC(C3)C1)C2)C(=O)OCC(=O)O [Example 172, 2-((4-((-adamantan-1-yl)oxy)-2-methylene-4-oxobutanoyl)oxy)acetic Acid]
concentration at 0.05 h ([1]; time 0.05 h): 23700 ng/mL | concentration at 0.133 h ([1]; time 0.133 h): 11300 ng/mL | concentration at 0.25 h ([1]; time 0.25 h): 2640 ng/mL | concentration at 0.5 h ([1]; time 0.5 h): 1210 ng/mL | concentration at 1 h ([1]; time 1 h): 75 ng/mL | concentration at 2 h ([1]; time 2 h): 9.9 ng/mL | concentration at 4 h ([1]; time 4 h): 6.1 ng/mL | concentration at 6 h ([1]; time 6 h): < 4 ng/mL | concentration at 8 h ([1]; time 8 h): < 4 ng/mL | IC50 ([2]; Homo sapiens, PMA-differentiated THP-1 cells, LPS 24 hr then Nigericin 1 hour, read-out: IL-1β (IC50)): 23.8 µM

C=C(CC(=O)OC1CCCCCCC1)C(=O)OCC(=O)N1CCC[C@H]1C(=O)O [Example 104, (2-((4-(cyclooctyloxy)-2-methylene-4-oxobutanoyl)oxy)acetyl)-L-proline]
IC50 [2, 3]: 14.4 µM

C=C(CC(=O)OC(C1CCCCC1)C(F)(F)F)C(=O)OCC(=O)O (centres unmarked) [Example 180, 2-((4-(1-cyclohexyl-2,2,2-trifluoroethoxy)-2-methylene-4-oxobutanoyl)oxy)acetic acid]
IC50 [2, 3]: 8.2 µM

C=C(CC(=O)OC(CC)CCCCC)C(=O)OCC(=O)O (centres unmarked) [Example 146, 2-(2-methylene-4-(octan-3-yloxy)-4-oxobutanoyloxy)acetic acid]
IC50 [2, 3]: 8.5 µM

C=C(CC(=O)OC(C)c1cc(Cl)cc(Cl)c1)C(=O)OCC(=O)O (centres unmarked) [Example 176, 2-((4-(1-(3,5-dichlorophenyl)ethoxy)-2-methylene-4-oxobutanoyl)oxy)acetic acid]
IC50 [2, 3]: 12 µM

C=C(CC(=O)OC1CCCCC1)C(=O)OCc1nnn(C)n1 [Example 142, 4-cyclohexyl 1-((2-methyl-2H-tetrazol-5-yl)methyl) 2-methylenesuccinate]
IC50 [2, 3]: 6.2 µM

C=C(CC(=O)O[C@H](C)CCCCCCC)C(=O)OCC(=O)O [Example 183, (R)-2-((2-methylene-4-(nonan-2-yloxy)-4-oxobutanoyl)oxy)acetic acid]
IC50 [2, 3]: 9.6 µM

C=C(CC(=O)O[C@@H](C)CCCCCC)C(=O)OCC(=O)NCC(=O)O [Example 106, (S)-(2-((2-methylene-4-(octan-2-yloxy)-4-oxobutanoyl)oxy)acetyl)glycine]
IC50 [2, 3]: 15.6 µM

C=C(CC(=O)O[C@H](C)CCCCC)C(=O)OCC(=O)O [Example 173, (R)-2-((4-(heptan-2-yloxy)-2-methylene-4-oxobutanoyl)oxy)acetic acid]
IC50 [2, 3]: 27.6 µM

C=C(CC(=O)OCC(=O)O)C(=O)OCCS(=O)(=O)c1cccc(Cl)c1 [Example 126, 2-((3-((2-((3-chlorophenyl)sulfonyl)ethoxy)carbonyl)but-3-enoyl)oxy)acetic acid]
IC50 ([2]; Homo sapiens, THP-1, read-out: IL-1β (IC50)): 0.7 µM

C=C(CC(=O)OC1C2CC3CC(C2)CC1C3)C(=O)OCC(=O)O (centres unmarked) [Example 149, 2-((4-((adamantan-2-yl)oxy)-2-methylene-4-oxobutanoyl)oxy)acetic acid]
IC50 [2, 3]: 12.1 µM

C=C(CC(=O)OC1CCCCCCC1)C(=O)O[C@@H](C)[C@@H](NC(C)=O)C(=O)O (stereo in doubt) [Example 136, (2R,3S)-2-acetamido-3-((4-(cyclooctyloxy)-2-methylene-4-oxobutanoyl)oxy)butanoic acid]
IC50 [2, 3]: 54.2 µM

C=C(CC(=O)OC1(CCCCC)CCC1)C(=O)OCC(=O)O [Example 194, 2-((2-methylene-4-oxo-4-(1-pentylcyclobutoxy)butanoyl)oxy)acetic acid]
IC50 [2, 3]: 24.8 µM

C=C(CC(=O)O[C@@H](C)CCCCCC)C(=O)OCC(=O)N(C)CC(=O)O [Example 105, (S)-N-methyl-N-(2-((2-methylene-4-(octan-2-yloxy)-4-oxobutanoyl)oxy)acetyl)glycine]
IC50 [2, 3]: 27.9 µM

C=C(CC(=O)OC1CC2(CCCCC2)C1)C(=O)OCC(=O)O [Example 153, 2-(2-methylene-4-oxo-4-(spiro[3.5]nonan-2-yloxy)butanoyloxy)acetic acid]
IC50 [2, 3]: 7 µM

C=C(CC(=O)OC1CCCCCCC1)C(=O)OCC(C)(C)S(C)(=O)=O [Example 132, 4-cyclooctyl 1-(2-methyl-2-(methylsulfonyl)propyl) 2-methylenesuccinate]
IC50 [2, 3]: 4.3 µM

C=C(CC(=O)O[C@H](C)CCCCCC)C(=O)OCc1cc(=O)[nH]o1 [Example 187, (R)-4-(octan-2-yl) 1-((3-oxo-2,3-dihydroisoxazol-5-yl)methyl) 2-methylenesuccinate]
IC50 [2, 3]: 2.9 µM

C=C(CC(=O)OC(C)CCCCCCC)C(=O)OCC(=O)O (centres unmarked) [Example 174, 2-((2-methylene-4-(nonan-2-yloxy)-4-oxobutanoyl)oxy)acetic acid]
IC50 [2, 3]: 10.9 µM

C=C(CC(=O)O[C@H](C)C1CCCCC1)C(=O)OCC(=O)O [Example 184, (R)-2-((4-(1-cyclohexylethoxy)-2-methylene-4-oxobutanoyl)oxy)acetic acid]
IC50 [2, 3]: 33.9 µM

C=C(CC(=O)OC(C)Cc1cc(Cl)cc(Cl)c1)C(=O)OCC(=O)O (centres unmarked) [Example 177, 2-((4-((1-(3,5-dichlorophenyl)propan-2-yl)oxy)-2-methylene-4-oxobutanoyl)oxy)acetic acid]
IC50 [2, 3]: 20.5 µM

C=C(CC(=O)OC1CC2CCC1(C)C2(C)C)C(=O)OCC(=O)O (stereo not drawn) [Example 196, 2-((2-methylene-4-oxo-4-(((exo)-1,7,7-trimethylbicyclo[2.2.1]heptan-2-yl)oxy)butanoyl)oxy)acetic acid]
IC50 ([2]; PMA-differentiated THP-1 cells, LPS 24 hr then Nigericin 1 hour, read-out: IL-1β (IC50)): 18.8 µM

C=C(CC(=O)OC(C)c1cc(Cl)cc(Cl)c1)C(=O)OCC(=O)O (single isomer, unassigned; isomer 1) [Example 198, 2-((4-(1-(3,5-dichlorophenyl)ethoxy)-2-methylene-4-oxobutanoyl)oxy)acetic acid (Isomer 1)]
IC50 [2, 3]: 22 µM

C=C(CC(=O)OC1(CCCCC)CC1)C(=O)OCC(=O)O [Example 206, 2-((2-methylene-4-oxo-4-(1-pentylcyclopropoxy)butanoyl)oxy)acetic acid]
IC50 [2, 3]: 19.1 µM
